Reference: ChEMBL document CHEMBL5131478, “3,5-Bis(trifluoromethyl)phenylsulfonamides, a novel pancreatic cancer active lead. Investigation of the terminal aromatic moiety” (Bioorg Med Chem Lett, 2022)

Experiments:
MCF7 = assay: Growth inhibition of human MCF7 cells incubated for 72 hrs by MTT assay; format: functional
ASPC1 = assay: Growth inhibition of human ASPC1 cells incubated for 72 hrs by MTT assay; format: functional
Capan-2 = assay: Growth inhibition of human Capan-2 cells incubated for 72 hrs by MTT assay; format: functional
BE(2)-C = assay: Growth inhibition of human BE2C cells incubated for 72 hrs by MTT assay; format: functional
MIA PaCa-2 = assay: Growth inhibition of human MIA PaCa-2 cells incubated for 72 hrs by MTT assay; format: functional
[1] = Growth inhibition of human MCF-10A cells incubated for 72 hrs by MTT assay; format: toxicity, cell-based
PANC-1 = assay: Growth inhibition of human PANC-1 cells incubated for 72 hrs by MTT assay; format: functional
BXPC-3 = assay: Growth inhibition of human BXPC-3 cells incubated for 72 hrs by MTT assay; format: functional
A2780 = assay: Growth inhibition of human A2780 cells incubated for 72 hrs by MTT assay; format: functional
HPAC = assay: Growth inhibition of human HPAC cells incubated for 72 hrs by MTT assay; format: functional
HT-29 = assay: Growth inhibition of human HT-29 cells incubated for 72 hrs by MTT assay; format: functional
A-431 = assay: Growth inhibition of human A-431 cells incubated for 72 hrs by MTT assay; format: functional
U-87 MG = assay: Growth inhibition of human U87 cells incubated for 72 hrs by MTT assay; format: functional, U-87MG ATCC
DU-145 = assay: Growth inhibition of human DU-145 cells incubated for 72 hrs by MTT assay; format: functional
NCI-H460 = assay: Growth inhibition of human NCI-H460 cells incubated for 72 hrs by MTT assay; format: functional
[2] = Growth inhibition of human SJG2 cells incubated for 72 hrs by MTT assay; format: functional; settings: SJ-G2

Structure (SMILES)	GI50 (MCF7)	GI50 (ASPC1)	GI50 (Capan-2)	GI50 (BE(2)-C)	GI50 (MIA PaCa-2)	GI50 at 72 h [1]	GI50 (PANC-1)	GI50 (BXPC-3)	GI50 (A2780)	GI50 (HPAC)	GI50 (HT-29)	GI50 (A-431)	GI50 (U-87 MG)	GI50 (DU-145)	GI50 (NCI-H460)	GI50 [2]
O=S(=O)(NCCCNCC1COc2ccccc2O1)c1cc(C(F)(F)F)cc(C(F)(F)F)c1 (stereo not drawn)	2.5 µM	2.9 µM	2.5 µM	2.8 µM	2.6 µM	3.2 µM	3.4 µM	1.2 µM	1.5 µM	2.7 µM	2.2 µM					
O=S(=O)(NCCCCNCc1ccc(Br)cc1)c1cc(C(F)(F)F)cc(C(F)(F)F)c1	1.5 µM	2.9 µM	1.9 µM	2.2 µM	2.1 µM	3.2 µM	2.2 µM	1.7 µM	2.1 µM	2 µM	1.6 µM					
COc1ccccc1CNCCCNS(=O)(=O)c1cc(C(F)(F)F)cc(C(F)(F)F)c1	2.6 µM	4.6 µM	6 µM	3.6 µM	3.1 µM	5.5 µM	12 µM	1.7 µM	1.5 µM	2.4 µM	12 µM					
O=S(=O)(NCCCNCc1ccc(C(F)(F)F)cc1)c1cc(C(F)(F)F)cc(C(F)(F)F)c1	1.4 µM	2 µM	2 µM	2.7 µM	2.5 µM	3.3 µM	3.2 µM	1.7 µM	2.8 µM	2.7 µM	2.9 µM					
O=S(=O)(NCCCCCCNCc1ccc(Br)cc1)c1cc(C(F)(F)F)cc(C(F)(F)F)c1					2.97 µM											
Cc1ccc(C)c(S(=O)(=O)NCCCCCCNCc2ccc(Br)cc2)c1					12 µM											
O=S(=O)(NCCCCCCNCc1ccc(Br)cc1)c1ccc(C(F)(F)F)cc1					3.83 µM											
COc1ccc(CNCCCNS(=O)(=O)c2cc(C(F)(F)F)cc(C(F)(F)F)c2)cc1	2.5 µM	2.8 µM	2.4 µM	2.8 µM	2.5 µM	3.1 µM	11 µM	1.3 µM	1.7 µM	3 µM	2.9 µM					
O=S(=O)(NCCCCCCNCc1ccc(Br)cc1)c1ccc(Cl)cc1					5.9 µM											
O=S(=O)(NCCCNCc1cccc(Cl)c1)c1cc(C(F)(F)F)cc(C(F)(F)F)c1	2.6 µM	5.9 µM	8 µM	6.9 µM	4.4 µM	7 µM	12 µM	3.8 µM	2.2 µM	2.7 µM	14 µM					
COc1ccc(S(=O)(=O)NCCCCCCNCc2ccc(Br)cc2)cc1					13 µM											
O=S(=O)(NCCCNCc1cccc2ccccc12)c1cc(C(F)(F)F)cc(C(F)(F)F)c1	1.4 µM	21 µM	2.7 µM	2.7 µM	2.8 µM	3.2 µM	2.7 µM	2.7 µM	3.1 µM	2.4 µM	2.6 µM					
O=S(=O)(NCCCCCCNCc1ccc(Br)cc1)c1cccc(C(F)(F)F)c1					5.97 µM											
COc1ccc(CNCCNS(=O)(=O)c2cc(C(F)(F)F)cc(C(F)(F)F)c2)cc1OC	25 µM	20 µM	34 µM	23 µM	29 µM	25 µM	34 µM	20 µM	14 µM	16 µM	13 µM	25 µM	25 µM	30 µM	19 µM	29 µM
O=S(=O)(NCCNCc1ccc(-c2ccccc2)cc1)c1cc(C(F)(F)F)cc(C(F)(F)F)c1	1.4 µM	2.8 µM	2.4 µM	2.7 µM	2.7 µM	3.3 µM	4.2 µM	1.6 µM	2.6 µM	2.8 µM	2.7 µM	2.4 µM	1.4 µM	2.5 µM	2.6 µM	2.5 µM
O=S(=O)(NCCCCCCNCc1ccc(Br)cc1)c1ccc2ccsc2c1					6 µM											
O=[N+]([O-])c1ccc(S(=O)(=O)NCCCCCCNCc2ccc(Br)cc2)cc1					9.8 µM											
CC(C)c1ccc(S(=O)(=O)NCCCCCCNCc2ccc(Br)cc2)cc1					5.73 µM											
CC(C)(C)c1ccc(CNCCCNS(=O)(=O)c2cc(C(F)(F)F)cc(C(F)(F)F)c2)cc1	2.1 µM	2.7 µM	2.1 µM	2.5 µM	2.3 µM	3.2 µM	2.5 µM	1.4 µM	2.9 µM	2.3 µM	2 µM	2.8 µM	2.3 µM	2.7 µM	2.5 µM	2.4 µM

Structure (SMILES)	GI50 (MCF7)	GI50 (ASPC1)	GI50 (Capan-2)	GI50 (BE(2)-C)	GI50 (MIA PaCa-2)	GI50 at 72 h [1]	GI50 (PANC-1)	GI50 (BXPC-3)	GI50 (A2780)	GI50 (HPAC)	GI50 (HT-29)	GI50 (A-431)	GI50 (U-87 MG)	GI50 (DU-145)	GI50 (NCI-H460)	GI50 [2]
CC(C)(C)c1ccc(CNCCNS(=O)(=O)c2cc(C(F)(F)F)cc(C(F)(F)F)c2)cc1	13 µM	14 µM	13 µM	14 µM	15 µM	14 µM	13 µM	8.8 µM	14 µM	14 µM	14 µM	16 µM	13 µM	16 µM	14 µM	14 µM
CCCCc1ccc(S(=O)(=O)NCCCCCCNCc2ccc(Br)cc2)cc1					5.7 µM											
O=[N+]([O-])c1ccccc1S(=O)(=O)NCCCCCCNCc1ccc(Br)cc1					11.7 µM											
O=S(=O)(NCCNCc1cccc2ccccc12)c1cc(C(F)(F)F)cc(C(F)(F)F)c1	18 µM	22 µM	21 µM	19 µM	26 µM	22 µM	24 µM	23 µM	21 µM	18 µM	16 µM					
O=S(=O)(NCCCNCc1ccc(Cl)c(C(F)(F)F)c1)c1cc(C(F)(F)F)cc(C(F)(F)F)c1	3.5 µM	9.6 µM	9.1 µM	8.6 µM	7.4 µM	7.9 µM	10 µM	7.8 µM	5.9 µM	3 µM	11 µM					
O=S(=O)(NCCCCCCNCc1ccc(Br)cc1)c1ccccc1F					13.3 µM											
O=S(=O)(NCCCNCc1ccccc1)c1cc(C(F)(F)F)cc(C(F)(F)F)c1	3 µM	13 µM	14 µM	12 µM	11 µM	13 µM	16 µM	13 µM	4.9 µM	3.2 µM	15 µM					
O=S(=O)(NCCCNCc1ccccc1Cl)c1cc(C(F)(F)F)cc(C(F)(F)F)c1	8.8 µM	13 µM	13 µM	15 µM	11 µM	11 µM	15 µM	11 µM	9.3 µM	10 µM	20 µM					
O=S(=O)(NCCCCCCNCc1ccc(Br)cc1)c1cc(Cl)cc(Cl)c1					12 µM											
O=S(=O)(NCCCNCc1ccc(Cl)cc1)c1cc(C(F)(F)F)cc(C(F)(F)F)c1	2.4 µM	3 µM	2.7 µM	2.9 µM	2.8 µM	2.3 µM	4.9 µM	1.6 µM	1.8 µM	2.8 µM	2.8 µM					
CC(C)(C)c1ccc(S(=O)(=O)NCCCCCCNCc2ccc(Br)cc2)cc1					2.97 µM											
COc1cccc(CNCCCNS(=O)(=O)c2cc(C(F)(F)F)cc(C(F)(F)F)c2)c1	2.4 µM	3.8 µM	6.4 µM	4.5 µM	3.4 µM	6.6 µM	10 µM	1.7 µM	1.6 µM	2.4 µM	10 µM					
CN(CCCNS(=O)(=O)c1cc(C(F)(F)F)cc(C(F)(F)F)c1)Cc1ccccc1	16 µM	51 µM	46 µM	28 µM	33 µM	26 µM	> 50 µM	39 µM	28 µM	30 µM	> 50 µM					
O=S(=O)(NCCCCCCNCc1ccc(Br)cc1)c1c(Cl)cc(C(F)(F)F)cc1Cl					5.67 µM											
O=S(=O)(NCCCCCCNCc1ccc(Br)cc1)c1c(Cl)cccc1Cl					14.7 µM											
O=S(=O)(NCCCNCc1ccc(Cl)c(Cl)c1)c1cc(C(F)(F)F)cc(C(F)(F)F)c1	2.4 µM	2.8 µM	1.8 µM	2.9 µM	2.7 µM	3 µM	5.6 µM	1.4 µM	1.5 µM	2.5 µM	4.7 µM					
Cc1ccc(S(=O)(=O)NCCCCCCNCc2ccc(Br)cc2)cc1					12.3 µM											
O=S(=O)(NCCCCCCNCc1ccc(Br)cc1)c1ccc2c(c1)OCC2					13 µM											
O=S(=O)(NCCCCCCNCc1ccc(Br)cc1)c1ccccc1Cl					13.7 µM											
